Data on three compounds can be found in patent US20050043273A1, “Compositions and methods for inhibiting slit protein and glypican interactions” (priority 2003, published 2005).

For data set [1], the system named is glypican-1-Fc binding to human full-length Slit-2. The data set is described as follows: ELISA: inhibition of glypican-1-Fc binding to Slit-2. The procedure: Human embryonic kidney 293 cells were transfected with a glypican-1-Fc fusion protein construct using Lipofectamine 2000 and grown in serum-free DMEM containing 1% ITS+. To separate the glycanated form of the proteoglycan (which was used for all studies) from unglycanated core protein, the conditioned medium was applied to a 0.9×8 cm column of DEAE-Sephacel equilibrated with 150 mM NaCl, 50 mM Tris-HCl, pH 8.0. After elution with 50 mM Tris-HCl (pH 8.0) containing 0.6 M NaCl, the glycanated glypican-1-Fc was bound to protein A-Sepharose beads, eluted with 0.1 M glycine, pH 3.0, and immediately neutralized with 1 M Tris, pH 8.0, for storage at −80° C.
293 cells were transfected with the pSecTagB vector (Invitrogen, Carlsbad, Calif.) containing cDNA for the His-tagged uncleavable variant of human full-length Slit-2, in which the nine amino acids encompassing the proteolytic processing site were deleted, producing an uncleavable full-length protein. 1 M NaCl extracts of the 293 cells were incubated with nickel-agarose beads (Qiagen) for 2 hours at 4° C., and after washing, bound protein was eluted with 10 mM Hepes (pH 7.5) containing 250 mM imidazole and 1 M NaCl. Protein concentrations were determined by the Bradford assay. Purity of the recombinant Slit protein was confirmed by SDS-PAGE followed by silver staining.
96-well plates (Corning Costar #9018) were coated overnight with the human full-length Slit-2 in imadazole/NaCl elution buffer at a saturating concentration of 1-5 μg/well, after dilution in PBS. Unbound protein was removed by washing with TBST (10 mM Tris-HCl, pH 7.4, 150 mM NaCl, 0.1% Tween 20), the wells were blocked with 10% FBS in TBST for 2 hours, and then incubated for 18 hours at room temperature with glypican-1-Fc (1 μg/well) in 5 mM PBS (pH 7.2), or in PBS containing varying concentrations of potential inhibitory compositions. Bound glypican was detected using a biotinylated anti-human Fc antibody (Jackson Immunoresearch; 1:250,000 in TBST, for 2 hours), followed by incubation for 20 minutes with HRP-conjugated streptavidin (1:20,000 in TBST). The colorimetric reaction product from the o-phenylenediamine substrate was measured at 450 nm using a Dynatech MRX ELISA plate reader. Nonspecific binding was calculated as the binding of glypican-1-Fc to wells coated with BSA (2 mg/ml solution). Percent inhibition was calculated in relation to parallel assay wells in which no inhibitor was added to the glypican-1 solution. From serial dilutions of a known concentration of glypican-1-Fc directly coated on the wells and the corresponding immunoreactivity absorbance, a standard curve could also be created and used to quantitate the absolute amount of glypican-1-Fc bound.
The glypican-1-Fc and human Slit-2 fusion proteins are prepared as set forth in Example One.

The test system of data set [2] is vascular endothelial cells. Particulars: cited from earlier work.
A further data set concerns whole blood. Particulars: cited from earlier work.

As for `Cc1ccc(C(=O)Nc2ccc(S(=O)(=O)O)c3cc(S(=O)(=O)O)cc(S(=O)(=O)O)c23)cc1NC(=O)c1cccc(NC(=O)Nc2cccc(C(=O)Nc3cc(C(=O)Nc4ccc(S(=O)(=O)O)c5cc(S(=O)(=O)O)cc(S(=O)(=O)O)c45)ccc3C)c2)c1` [suramin], the “inhibition of glypican binding to Slit proteins (in words)” value in data set [1] (ELISA, function of oligosaccharide size, FIG. 1) was “inhibits glypican-Slit interactions to the same extent as large heparin oligosaccharides”.

Turning to `CO[C@H]1O[C@H](COS(=O)(=O)O)[C@@H](O[C@@H]2O[C@@H](C(=O)O)[C@@H](O[C@H]3O[C@H](COS(=O)(=O)O)[C@@H](O[C@@H]4O[C@H](C(=O)O)[C@@H](O[C@H]5O[C@H](COS(=O)(=O)O)[C@@H](O)[C@H](O)[C@H]5NS(=O)(=O)O)[C@H](O)[C@H]4O)[C@H](OS(=O)(=O)O)[C@H]3NS(=O)(=O)O)[C@H](O)[C@H]2OS(=O)(=O)O)[C@H](O)[C@H]1NS(=O)(=O)O` [Arixtra], the “% inhibition of glypican-1 binding to Slit” value in data set [1] (50 μM) was “no effect”.

Consider `O=S(=O)(O)c1cc2c(O)c(c1)Cc1cc(S(=O)(=O)O)cc(c1O)Cc1cc(S(=O)(=O)O)cc(c1O)Cc1cc(S(=O)(=O)O)cc(c1O)Cc1cc(S(=O)(=O)O)cc(c1O)Cc1cc(S(=O)(=O)O)cc(c1O)Cc1cc(S(=O)(=O)O)cc(c1O)Cc1cc(S(=O)(=O)O)cc(c1O)C2` [GL-522-Y-1], for which the figures for the “% inhibition of glypican-1 binding to Slit” value in data set [1] (1 μM), in data set [1] (5 μM) and in data set [1] (50 μM) were 58%, 61% and 67%, respectively. In addition, in data set [2], the antithrombotic activity entry was “heparin-like antithrombotic activity”. In addition, in the data set on whole blood, the anticoagulant activity entry is on record as “no significant anticoagulant activity”.
